From publication PMC12881674, “Activation of TRPV3 channels in bladder cancer cells stimulates ATP release” (Molecular Pharmacology, 2025)

Experiments:
KU-19-19 cells = assay: MTT cell viability/proliferation assay; format: cell-based, human; settings: 24 hours, concentrations up to 50 μM
Description: To monitor a potential cytotoxicity of individual compounds, 3-(4,5-dimethylthiazol-2-yl)-2,5-diphenyltetrazolium bromide (MTT) assays were performed to assess cell viability and metabolic activity. Cells (5000 per/well) were seeded in PLL-coated 96-well plates and allowed to adhere overnight. After 24 hours, culture medium was exchanged for medium containing indicated drugs, and cells were cultured for another 24 hours. Following treatment with the compounds, 100 μL of medium containing 0.5 mg/mL MTT was added, and cells were incubated for additional 3 hours. The medium was removed, and 100 μL of DMSO was added to dissolve formazan crystals. Absorbance was measured at 560 nm, with a reference wavelength at 670 nm using a plate reader (Polarstar Omega; BMG Labtech). Cell viability was calculated relative to untreated control cells.
Fig. 4 TRPV3 activation by AV3-1 was enhanced by cholesterol supplementation and causes ATP release in KU-19-19 bladder cancer cells. […] Current amplitudes were recorded using voltage ramps from −100 mV to +100 mV (500-millisecond duration) and expressed as current density (pA/pF) measured at +100 mV and −100 mV. (C) Quantification of current densities (pA/pF) at −100 mV (inward current) and +100 mV (outward current) at the time points (1, 2) as indicated in (A, B). […]

parental HEK cells = assay: Ca2+ assays (fluo-4 and fura-2) in parental HEK cells lacking TRPV3; format: cell-based, human; settings: concentrations up to 50 μM
Description: All fluorometric Ca^2+ assays were performed in HBS buffer at room temperature. The compounds of the Enamine Diversity Set were diluted in a buffer composed of 150 mM NaCl and 20 mM HEPES and added to the cells at a final concentration of 25 μM (0.5% DMSO). For the primary compound screening and the generation of concentration-response analyses, a robotic liquid handling station (Freedom Evo 150; Tecan) with a built-in custom-made fluorescence plate imager was used. HEKTRPV3 and bladder cancer cell lines were harvested and loaded with 4 μM fluo-4/AM (Invitrogen; Fisher Scientific) in cell culture medium for 30 minutes at 37 °C. […] Fluorescence was excited using a 470-nm light-emitting diode, and emitted light was imaged through a 515-nm–long pass filter with a cooled Zyla 5.5 camera (Andor). Fluorescence was recorded and processed under the control of the μ-Manager 2.0 gamma software (https://micro-manager.org.[28]). After recording baseline fluorescence, compounds were dispensed into the wells via the liquid handling device. […] For further analysis, fluorescence signals were calculated for each well, corrected for background intensities and normalized to the initial signals. […] Fluorescence signals were excited with a fiber-coupled monochromator device (Polychrome V; Till Photonics) at 340, 358, and 380 nm and calibrated as described before.[29] […]

SMILES: COC(=O)C12CN(Cc3ccccc3)CC1(C(=O)OC)CN(Cc1ccccc1)C2 (centres unmarked) [AV3-1]
- toxicity (cell viability and proliferation, MTT) (KU-19-19 cells): only minor toxicity
- off-target effects on parental HEK cells (parental HEK cells): no detectable off-target effects
